# According to US20260083698A1, “Synergistic Stimulation of Mucociliary Clearance to Treat Mucus Obstruction in Cystic Fibrosis and Other Muco-Obstructive Disorders” (The Board of Trustees of the Leland Stanford Junior …, priority 2022, published 2026):
# Test system: piglet or ferret tracheal rings
# Assay: Airway narrowing: lumen area of thin sliced tracheal rings, carbachol
# Set-up: species or system pig; ferret
# Settings: 0.3 mM carbachol alone
# Description: FIG. 2. Elevating cAMP by adenylate cyclase activation inhibited muscle tension and airway narrowing to carbachol. (A, B) To measure muscle tension, one end of an isolated WT ferret trachealis muscle bundle was secured in a Sylgard-lined Petri dish filled with KRB solution and the other end was attached by 26-gauge wire to a previously calibrated strain gauge. […] (red closed circles). Averaged responses at 10 min intervals are shown for: (C) WT piglet tracheas (n=3-7) with forskolin. […] (F). CF ferrets (n=2, one CFTRΔF/ΔF and one CFTRΔF/G551D). […] Used alone they have opposite effects: Ca^2+-elevating agonists contract muscles whereas cAMP-elevating agonists relax them. For therapeutic use, the potential for producing unwanted bronchoconstriction with the combined agonists is a safety concern. […] Tension of ferret trachealis muscle bundles was measured to increasing carbachol concentrations±[…] forskolin. […] Importantly, the protective effect was also observed in CF ferrets (FIG. 2F). Airway smooth muscle contraction measurement. Two methods were used to measure tracheal smooth muscle contraction. One is designed to measure airway narrowing using thin sliced tracheal rings. Piglet or ferret tracheal ring preparations of ˜2 mm were submerged and securely pinned on a Sylgard-lined Petri dish filled with KRB solution at 37° C. and pH 7.4. […] The other method is using a force transducer. […]
compound,measurement,value
C[N+](C)(C)CCOC(N)=O [carbachol],sustained reduction of lumen area,20-40%
